From US20090291968A1, “SUBSTITUTED INDAZOLE DERIVATIVES, THEIR MANUFACTURE AND USE AS PHARMACEUTICAL AGENTS” (priority 2006, published 2009)
pIC50: −log10 of the molar value.

system: HCT 116 cells; experiment: CellTiter-Glo assay in HCT 116 cells (cell viability); type: cell-based; details: 120 h; HCT 116 human colon carcinoma cells, 5 days incubation, CellTiter-Glo luminescence
Procedure: The CellTiter-Glo™ Luminescent Cell Viability Assay (Promega) is a homogeneous method of determining the number of viable cells in culture based on quantitation of the ATP present, which signals the presence of metabolically active cells.
HCT 116 cells (human colon carcinoma, ATCC-No. CCl-247) were cultivated in RPMI 1640 medium with GlutaMAX™ I (Invitrogen, Cat-No. 61870-010), 2,5% Fetal Calf Serum (FCS, Sigma Cat-No. F4135 (FBS)); 100 Units/ml penicillin/100 μg/ml streptomycin (=Pen/Strep from Invitrogen Cat. No. 15140). For the assay the cells were seeded in 384 well plates, 1000 cells per well, in the same medium. The next day the test compounds were added in various concentrations ranging from 30 μM to 0.0015 μM (10 concentrations, 1:3 diluted). After 5 days the CellTiter-Glo™ assay was done according to the instructions of the manufacturer (CellTiter-Glo™ Luminescent Cell Viability Assay, from Promega). In brief: the cell-plate was equilibrated to room temperature for approximately 30 minutes and than the CellTiter-Glo™ reagent was added. The contents were carefully mixed for 15 minutes to induce cell lysis. After 45 minutes the luminescent signal was measured in Victor 2, (scanning multiwell spectrophotometer, Wallac).
1st. Day: • Medium: RPMI 1640 with GlutaMAX™ I (Invitrogen, Cat-Nr. 61870), 5% FCS (Sigma Cat.-No. F4135), Pen/Strep (Invitrogen, Cat No. 15140). • HCT116 (ATCC-No. CCl-247): 1000 cells in 60 μl per well of 384 well plate (Greiner 781098, μClear-plate white) • After seeding incubate plates 24 h at 37° C., 5% CO2 2nd. Day: Induction (Treatment with Compounds, 10 Concentrations):
In order to achieve a final concentration of 30 μM as highest concentration 3.5 μl of 10 mM compound stock solution were added directly to 163 μl media. Then step e) of the dilution procedure described below, was followed.
In order to achieve the second highest to the lowest concentrations, a serial dilution with dilution steps of 1:3 was followed according to the procedure (a-e) as described here below: • a) for the second highest concentration add 10 μl of 10 mM stock solution of compound to 20 μl dimethylsulfoxide (DMSO) • b) dilute 8×1:3 (always 10 μl to 20 μl DMSO) in this DMSO dilution row (results in 9 wells with concentrations from 3333.3 μM to 0.51 μM) • c) dilute each concentration 1:47.6 (3.5 μl compound dilution to 163 μl media) • e) add 10 μl of every concentration to 60 μl media in the cell plate resulting in final concentration of DMSO: 0.3% in every well and resulting in 10 final concentration of compounds ranging from 30 μM to 0.0015 μM. • Each compound is tested in triplicate. • Incubate 120 h (5 days) at 37° C., 5% CO2
• Add 30 μl CellTiter-Glo™ Reagent (prepared from CellTiter-Glo™ Buffer and CellTiter-Glo™ Substrate (lyophilized) purchased from Promega) per well, • shake 15 minutes at room temperature • incubate further 45 minutes at room temperature without shaking
• Victor 2 scanning multiwell spectrophotometer (Wallac), Luminescence mode (0.5 sec/read, 477 nm) • Determine IC50 using a non-linear curve fit (XLfit software (ID Business Solution Ltd., Guilford, Surrey, UK))

Point of comparison: `CCN1C(=O)C(C)(C)c2cc3nc(-c4n[nH]c5cc(-c6cccnc6)ccc45)[nH]c3cc21` [Example 8, 5-Ethyl-7,7-dimethyl-2-(6-pyridin-3-yl-1H-indazol-3-yl)-5,7-dihydro-3H-imidazo[4,5-f]indol-6-one], pIC50 6.79. Against it:
- CCN1C(=O)C(C)(C)c2cc3nc(-c4n[nH]c5cc(/C=C/c6ccc(-c7ccccc7)cc6)ccc45)[nH]c3cc21 [Example 9, 2-[6-((E)-2-Biphenyl-4-yl-vinyl)-1H-indazol-3-yl]-5-ethyl-7,7-dimethyl-5,7-dihydro-3H-imidazo[4,5-f]indol-6-one] — not separable, 5.82 to 7.60
- CCN1C(=O)C(C)(C)c2cc3nc(-c4n[nH]c5cc(-c6ccc(N(C)C)cc6)ccc45)[nH]c3cc21 [Example 12, 2-[6-(4-Dimethylamino-phenyl)-1H-indazol-3-yl]-5-ethyl-7,7-dimethyl-5,7-dihydro-3H-imidazo[4,5-f]indol-6-one] — not separable, 5.82 to 7.60
- CCN1C(=O)C(C)(C)c2cc3nc(-c4n[nH]c5cc(-c6cccs6)ccc45)[nH]c3cc21 [Example 16, 5-Ethyl-7,7-dimethyl-2-(6-thiophen-2-yl-1H-indazol-3-yl)-5,7-dihydro-3H-imidazo[4,5-f]indol-6-one] — not separable, 5.82 to 7.60
- CCN1C(=O)C(C)(C)c2cc3nc(-c4n[nH]c5ccc(-c6cncnc6)cc45)[nH]c3cc21 [Example 35, 5-Ethyl-7,7-dimethyl-2-(5-pyrimidin-5-yl-1H-indazol-3-yl)-5,7-dihydro-3H-imidazo[4,5-f]indol-6-one] — not separable, 5.82 to 7.60
- CCN1C(=O)C(C)(C)c2cc3nc(-c4n[nH]c5cc(/C=C/c6ccccc6)ccc45)[nH]c3cc21 [Example 5, 5-Ethyl-7,7-dimethyl-2-[6-((E)-styryl)-1H-indazol-3-yl]-5,7-dihydro-3H-imidazo[4,5-f]indol-6-one] — 0.55 log units lower, 6.24
- CCN1C(=O)C(C)(C)c2cc3nc(-c4n[nH]c5cc(-c6cccc(N(C)C)c6)ccc45)[nH]c3cc21 [Example 21, 2-[6-(3-Dimethylamino-phenyl)-1H-indazol-3-yl]-5-ethyl-7,7-dimethyl-5,7-dihydro-3H-imidazo[4,5-f]indol-6-one] — not separable, 5.82 to 7.60
- CCN1C(=O)C(C)(C)c2cc3nc(-c4n[nH]c5cc(/C=C/c6ccc(OC)cc6)ccc45)[nH]c3cc21 [Example 10, 5-Ethyl-2-{6-[(E)-2-(4-methoxy-phenyl)-vinyl]-1H-indazol-3-yl}-7,7-dimethyl-5,7-dihydro-3H-imidazo[4,5-f]indol-6-one] — not separable, 5.82 to 7.60
- CCN1C(=O)C(C)(C)c2cc3nc(-c4n[nH]c5cc(-c6cn[nH]c6)ccc45)[nH]c3cc21 [Example 37, 5-Ethyl-7,7-dimethyl-2-[6-(1H-pyrazol-4-yl)-1H-indazol-3-yl]-5,7-dihydro-3H-imidazo[4,5-f]indol-6-one] — not separable, 5.82 to 7.60
- CCN1C(=O)C(C)(C)c2cc3nc(-c4n[nH]c5cc(-c6cnn(C)c6)ccc45)[nH]c3cc21 [Example 7, 5-Ethyl-7,7-dimethyl-2-[6-(1-methyl-1H-pyrazol-4-yl)-1H-indazol-3-yl]-5,7-dihydro-3H-imidazo[4,5-f]indol-6-one] — not separable, 5.82 to 7.60
- CCN1C(=O)C(C)(C)c2cc3nc(-c4n[nH]c5ccc(-c6cccnc6)cc45)[nH]c3cc21 [Example 27, 5-Ethyl-7,7-dimethyl-2-(5-pyridin-3-yl-1H-indazol-3-yl)-5,7-dihydro-3H-imidazo[4,5-f]indol-6-one] — not separable, 5.82 to 7.60
- CCN1C(=O)C(C)(C)c2cc3nc(-c4n[nH]c5ccc(-c6ccc(OC)nc6)cc45)[nH]c3cc21 [Example 24, 5-Ethyl-2-[5-(6-methoxy-pyridin-3-yl)-1H-indazol-3-yl]-7,7-dimethyl-5,7-dihydro-3H-imidazo[4,5-f]indol-6-one; compound with acetic acid] — not separable, 5.82 to 7.60
- CCN1C(=O)C(C)(C)c2cc3nc(-c4n[nH]c5ccc(-c6ccsc6)cc45)[nH]c3cc21 [Example 25, 5-Ethyl-7,7-dimethyl-2-(5-thiophen-3-yl-1H-indazol-3-yl)-5,7-dihydro-3H-imidazo[4,5-f]indol-6-one; compound with acetic acid] — not separable, 5.82 to 7.60
- CCN1C(=O)C(C)(C)c2cc3nc(-c4n[nH]c5cc(-c6ccccn6)ccc45)[nH]c3cc21 [Example 33, 5-Ethyl-7,7-dimethyl-2-(6-pyridin-2-yl-1H-indazol-3-yl)-5,7-dihydro-3H-imidazo[4,5-f]indol-6-one] — not separable, 5.82 to 7.60
- CCN1C(=O)C(C)(C)c2cc3nc(-c4n[nH]c5cc(-c6nc[nH]n6)ccc45)[nH]c3cc21 [Example 2, 5-Ethyl-7,7-dimethyl-2-[6-(1H-[1,2,4]triazol-3-yl)-1H-indazol-3-yl]-5,7-dihydro-3H-imidazo[4,5-f]indol-6-one] — not separable, 5.82 to 7.60
- CCN1C(=O)C(C)(C)c2cc3nc(-c4n[nH]c5cc(-c6ccc(C(C)=O)cc6)ccc45)[nH]c3cc21 [Example 13, 2-[6-(4-Acetyl-phenyl)-1H-indazol-3-yl]-5-ethyl-7,7-dimethyl-5,7-dihydro-3H-imidazo[4,5-f]indol-6-one] — 0.31 log units lower, 6.48
- CCN1C(=O)C(C)(C)c2cc3nc(-c4n[nH]c5ccc(-c6cnn(C)c6)cc45)[nH]c3cc21 [Example 26, 5-Ethyl-7,7-dimethyl-2-[5-(1-methyl-1H-pyrazol-4-yl)-1H-indazol-3-yl]-5,7-dihydro-3H-imidazo[4,5-f]indol-6-one; compound with acetic acid] — not separable, 5.82 to 7.60
- CCN1C(=O)C(C)(C)c2cc3nc(-c4n[nH]c5cc(-c6cncnc6)ccc45)[nH]c3cc21 [Example 32, 5-Ethyl-7,7-dimethyl-2-(6-pyrimidin-5-yl-1H-indazol-3-yl)-5,7-dihydro-3H-imidazo[4,5-f]indol-6-one] — not separable, 5.82 to 7.60
- CCN1C(=O)C(C)(C)c2cc3nc(-c4n[nH]c5cc(-c6ccc7c(c6)OCO7)ccc45)[nH]c3cc21 [Example 20, 2-(6-Benzo[1,3]dioxol-5-yl-1H-indazol-3-yl)-5-ethyl-7,7-dimethyl-5,7-dihydro-3H-imidazo[4,5-f]indol-6-one] — 0.54 log units lower, 6.25
- CCN1C(=O)C(C)(C)c2cc3nc(-c4n[nH]c5cc(-c6cccc([N+](=O)[O-])c6)ccc45)[nH]c3cc21 [Example 22, 5-Ethyl-7,7-dimethyl-2-[6-(3-nitro-phenyl)-1H-indazol-3-yl]-5,7-dihydro-3H-imidazo[4,5-f]indol-6-one] — not separable, 5.82 to 7.60
- CCN1C(=O)C(C)(C)c2cc3nc(-c4n[nH]c5cc(/C=C/c6ccc(Cl)cc6)ccc45)[nH]c3cc21 [Example 18, 2-{6-[(E)-2-(4-Chloro-phenyl)-vinyl]-1H-indazol-3-yl}-5-ethyl-7,7-dimethyl-5,7-dihydro-3H-imidazo[4,5-f]indol-6-one] — not separable, 5.82 to 7.60
- CCN1C(=O)C(C)(C)c2cc3nc(-c4n[nH]c5cc(-c6ccc(OC)nc6)ccc45)[nH]c3cc21 [Example 14, 5-Ethyl-2-[6-(6-methoxy-pyridin-3-yl)-1H-indazol-3-yl]-7,7-dimethyl-5,7-dihydro-3H-imidazo[4,5-f]indol-6-one] — not separable, 5.82 to 7.60
